Our source for the IC50 values is BindingDB's records for doi:10.3109/14756366.2010.616860 (Slovak University of Technology, 2012).

Holding throughout (assay): Enzyme Assay
What all share (details): pH 8

Test [1] concerns the target Urokinase-type plasminogen activator (Homo sapiens, UniProt P00749). Here is the method: (§1) Data scanning time was set to the 1st and 61st minute after the reaction start. Rutin, esculin, phloridzin and their esters were initially solubilized at a concentration of 10 mM in dimethyl sulphoxide (DMSO) and subsequently incorporated in the reaction mixture to final concentrations in the range of 1-50 μM. Samples were run in triplicate in 96-well plates by MRX microplate reader. Each experiment was performed in triplicate.

Test [2] addresses Chymotrypsin-like elastase family member 1 (Pig, UniProt P00772). Here is the method: as §1
Another test has as its target Prothrombin (Bos taurus, UniProt P00735). On the procedure:
as §1

In the next test the target is T1, Serine protease 1 (Bos taurus, UniProt P00760).
T1 sequence (P00760 whole entry): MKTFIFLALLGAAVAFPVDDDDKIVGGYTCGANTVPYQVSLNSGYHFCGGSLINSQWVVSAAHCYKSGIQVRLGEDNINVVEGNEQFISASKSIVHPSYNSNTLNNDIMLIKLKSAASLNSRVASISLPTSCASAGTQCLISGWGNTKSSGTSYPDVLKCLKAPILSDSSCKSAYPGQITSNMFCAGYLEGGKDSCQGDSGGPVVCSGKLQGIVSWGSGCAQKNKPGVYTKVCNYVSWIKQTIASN
Here is the method:
as §1

Several values for one entry are separate records, joined by “and”; a condition that tells them apart may be missing. Equal entries are not always repeated.

Chymotrypsin-like elastase family member 1, sequence (P00772 whole entry): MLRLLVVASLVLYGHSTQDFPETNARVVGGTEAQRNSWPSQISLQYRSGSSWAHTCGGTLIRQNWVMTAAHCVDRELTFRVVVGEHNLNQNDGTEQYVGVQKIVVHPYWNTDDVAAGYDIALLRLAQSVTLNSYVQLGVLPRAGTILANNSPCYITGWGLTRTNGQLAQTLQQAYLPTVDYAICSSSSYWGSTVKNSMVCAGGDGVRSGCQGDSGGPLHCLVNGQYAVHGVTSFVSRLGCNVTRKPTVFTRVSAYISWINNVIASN

One may read the IC50 as the point on the concentration scale where inhibition reaches its midpoint. `O=c1c(O)c(-c2ccc(O)c(O)c2)oc2cc(O)cc(O)c12` [2-(3,4-dihydroxyphenyl)-3,5,7-trihydroxy-chromone;hydrate] showed an IC50 in test [1] of 20 µM. This lies in the double-digit micromolar range.
Take `N=C(N)Nc1ccc(C(=O)O)cc1` [4-Guanidinobenzoate]: the IC50 in test [2] amounted to 500 µM; against Prothrombin, 400 µM; on Serine protease 1, 450 µM; in test [1], 20 µM.
For the compound `CCCCCCCCCCCC(=O)OCC1OC(Oc2cc3ccc(=O)oc3cc2O)C(O)C(O)C1O` (stereo not given) [Esculin laurate], the IC50 in test [2] turned out to be 20 µM; at Prothrombin, 60 µM; at Serine protease 1, 350 µM; in test [1] it was 100 µM.
On the same counts, the results for `CCCCCCCCCCCCCC(=O)OCC1OC(Oc2cc3ccc(=O)oc3cc2O)C(O)C(O)C1O` (stereo not given) [Esculin myristate] are 25 µM, 54 µM, 120 µM and 100 µM.
The corresponding values for `CCCCCCCCCCCCCCCC(=O)OCC1OC(Oc2cc3ccc(=O)oc3cc2O)C(O)C(O)C1O` (stereo not given) [Esculin palmitate] are 30 µM, 54 µM, 210 µM and 100 µM.
The corresponding values for `CCCCCCCCCCCCCCCCCC(=O)OCC1OC(Oc2cc3ccc(=O)oc3cc2O)C(O)C(O)C1O` (stereo not given) [Esculin stearate] are 60 µM, 52 µM, 50 µM and 89 µM.
Regarding `O=c1ccc2cc(OC3OC(CO)C(O)C(O)C3O)c(O)cc2o1` (stereo not given) [Esculin], the IC50 is 100 µM in test [2], 250 µM against Prothrombin, 150 µM against Serine protease 1 and 25 µM in test [1].
The corresponding values for `CCCCCCCCCCCC(=O)OCC1OC(Oc2cc(O)cc(O)c2C(=O)CCc2ccc(O)cc2)C(O)C(O)C1O` (stereo not given) [Phloridzin laurate] are greater than 500 µM, 70 µM, 55 µM and 9 µM.
Regarding `CCCCCCCCCCCCCC(=O)OCC1OC(Oc2cc(O)cc(O)c2C(=O)CCc2ccc(O)cc2)C(O)C(O)C1O` (stereo not given) [Phloridzin myristate], the IC50 was greater than 500 µM in test [2], 75 µM at Prothrombin, 65 µM on Serine protease 1 and 33 µM in test [1].
The corresponding values for `CCCCCCCCCCCCCCCC(=O)OCC1OC(Oc2cc(O)cc(O)c2C(=O)CCc2ccc(O)cc2)C(O)C(O)C1O` (stereo not given) [Phloridzin palmitate] are greater than 500 µM, 75 µM, 60 µM and 18 µM.
For `CCCCCCCCCCCCCCCCCC(=O)OCC1OC(Oc2cc(O)cc(O)c2C(=O)CCc2ccc(O)cc2)C(O)C(O)C1O` (stereo not given) [Phloridzin stearate], the 50% inhibitory concentration (IC50) in test [2] was greater than 500 µM; against Prothrombin it was 65 µM; at Serine protease 1, 215 µM; in test [1] it was 13 µM.
On the same counts, the results for `O=C(CCc1ccc(O)cc1)c1c(O)cc(O)cc1OC1OC(CO)C(O)C(O)C1O` (stereo not given) [Phloridzin] are 100 µM, 320 µM, 90 µM and 80 µM.
On the same counts, the results for `CCCC(=O)OC1C(C)OC(OCC2OC(Oc3c(-c4ccc(O)c(O)c4)oc4cc(O)cc(O)c4c3=O)C(O)C(O)C2O)C(O)C1O` (stereo not given) [Rutin butyrate] are greater than 500 µM, 22 µM, greater than 500 µM and 8 µM.
As to `CCCCCC(=O)OC1C(C)OC(OCC2OC(Oc3c(-c4ccc(O)c(O)c4)oc4cc(O)cc(O)c4c3=O)C(O)C(O)C2O)C(O)C1O` (stereo not given) [Rutin caproate], the IC50 was greater than 500 µM in test [2]; 32 µM on Prothrombin; greater than 500 µM against Serine protease 1; 14 µM and 20 µM in test [1].
As to `CCCCCCCC(=O)OC1C(C)OC(OCC2OC(Oc3c(-c4ccc(O)c(O)c4)oc4cc(O)cc(O)c4c3=O)C(O)C(O)C2O)C(O)C1O` (stereo not given) [Rutin caprylate], the IC50 is greater than 500 µM in test [2], 25 µM at Prothrombin, greater than 500 µM on Serine protease 1 and 32 µM in test [1].
`CCCCCCCCCCCC(=O)OC1C(C)OC(OCC2OC(Oc3c(-c4ccc(O)c(O)c4)oc4cc(O)cc(O)c4c3=O)C(O)C(O)C2O)C(O)C1O` (stereo not given) [Rutin laurate]: the IC50 in test [2] was greater than 500 µM; on Prothrombin, 14 µM; on Serine protease 1 it was 90 µM; in test [1], 50 µM.
With `CC/C=C\C/C=C\C/C=C\CCCCCCCC(=O)OC1C(C)OC(OCC2OC(Oc3c(-c4ccc(O)c(O)c4)oc4cc(O)cc(O)c4c3=O)C(O)C(O)C2O)C(O)C1O` (stereo not given) [Rutin linolenate], the 50% inhibitory concentration (IC50) in test [2] is greater than 500 µM; against Prothrombin, 7 µM; on Serine protease 1 it was 50 µM; in test [1] it was 20 µM.
On the same counts, the results for `CCCCCCCCCCCCCC(=O)OC1C(C)OC(OCC2OC(Oc3c(-c4ccc(O)c(O)c4)oc4cc(O)cc(O)c4c3=O)C(O)C(O)C2O)C(O)C1O` (stereo not given) [Rutin myristate] are greater than 500 µM, 10 µM, 130 µM and 15 µM.
The corresponding values for `CCCCCCCC/C=C\CCCCCCCC(=O)OC1C(C)OC(OCC2OC(Oc3c(-c4ccc(O)c(O)c4)oc4cc(O)cc(O)c4c3=O)C(O)C(O)C2O)C(O)C1O` (stereo not given) [Rutin oleate] are greater than 500 µM, 9 µM, 60 µM and 25 µM.
The corresponding values for `CCCCCCCCCCCCCCCC(=O)OC1C(C)OC(OCC2OC(Oc3c(-c4ccc(O)c(O)c4)oc4cc(O)cc(O)c4c3=O)C(O)C(O)C2O)C(O)C1O` (stereo not given) [Rutin palmitate] are greater than 500 µM, 3 µM, 40 µM and 15 µM.
As for `CCCCCCCCCCCCCCCCCC(=O)OC1C(C)OC(OCC2OC(Oc3c(-c4ccc(O)c(O)c4)oc4cc(O)cc(O)c4c3=O)C(O)C(O)C2O)C(O)C1O` (stereo not given) [Rutin stearate], the IC50 in test [2] is greater than 500 µM; against Prothrombin it was 8 µM; against Serine protease 1, 40 µM; in test [1], 15 µM.
Turning to `CC1OC(OCC2OC(Oc3c(-c4ccc(O)c(O)c4)oc4cc(O)cc(O)c4c3=O)C(O)C(O)C2O)C(O)C(O)C1O` (stereo not given) [Rutin], the IC50 in test [2] was 100 µM; at Prothrombin, 25 µM; against Serine protease 1 it was 40 µM; in test [1], 6 µM.
